Test results as given in patent US8580794B2 (AbbVie Inc., priority 2009, dated 2013).

The compounds below were run against GST-Bc1-2 (Homo sapiens, UniProt P10415) (assay: Time Resolved-Fluorescence Resonance Energy Transfer (TR-FRET) Bcl-2 binding assay with F-Bak peptide probe). Conditions: GST-Bcl-2 1 nM, F-Bak probe 100 nM, Tb-anti-GST 1 nM; '<' = below limit of detection; read-out: TR-FRET Bcl-2 Binding Ki.
Chain of GST-Bc1-2 (P10415 whole entry): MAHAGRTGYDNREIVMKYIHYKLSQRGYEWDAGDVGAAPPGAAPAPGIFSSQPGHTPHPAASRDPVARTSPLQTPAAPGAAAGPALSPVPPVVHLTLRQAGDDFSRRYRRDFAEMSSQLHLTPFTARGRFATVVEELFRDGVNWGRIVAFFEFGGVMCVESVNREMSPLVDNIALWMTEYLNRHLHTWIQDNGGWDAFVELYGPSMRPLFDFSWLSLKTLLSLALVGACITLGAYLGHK

| Structure (SMILES) | Ki |
| --- | --- |
| CC1(C)CCC(CN2CCN(c3ccc(C(=O)NS(=O)(=O)c4ccc(NCCCN(C5CC5)C5COC5)c([N+](=O)[O-])c4)c(Oc4cnc5[nH]ccc5c4)c3)CC2)=C(c2ccc(Cl)cc2)C1 [Example 311, 4-(4-{[2-(4-chlorophenyl)-4,4-dimethylcyclohex-1-en-1-yl]methyl}piperazin-1-yl)-N-{[4-({3-[cyclopropyl(oxetan-3-yl)amino]propyl}amino)-3-nitrophenyl]sulfonyl}-2-(1H-pyrrolo[2,3-b]pyridin-5-yloxy)benzamide] | < 0.01 nM |
| CN1CCC[C@H]1C(=O)N1CCC(COc2ccc(S(=O)(=O)NC(=O)c3ccc(N4CCN(CC5=C(c6ccc(Cl)cc6)CC(C)(C)CC5)CC4)cc3Oc3cnc4[nH]ccc4c3)cc2Cl)CC1 [Example 312, N-[(3-chloro-4-{[1-(1-methyl-L-prolyl)piperidin-4-yl]methoxy}phenyl)sulfonyl]-4-(4-{[2-(4-chlorophenyl)-4,4-dimethylcyclohex-1-en-1-yl]methyl}piperazin-1-yl)-2-(1H-pyrrolo[2,3-b]pyridin-5-yloxy)benzamide] | < 0.01 nM |
| CC1(C)CCC(CN2CCN(c3ccc(C(=O)NS(=O)(=O)c4cc(F)c(F)c(OCC5(F)CCOCC5)c4)c(Oc4cnc5[nH]ccc5c4)c3)CC2)=C(c2ccc(Cl)cc2)C1 [Example 313, 4-(4-{[2-(4-chlorophenyl)-4,4-dimethylcyclohex-1-en-1-yl]methyl}piperazin-1-yl)-N-({3,4-difluoro-5-[(4-fluorotetrahydro-2H-pyran-4-yl)methoxy]phenyl}sulfonyl)-2-(1H-pyrrolo[2,3-b]pyridin-5-yloxy)benzamide] | 1.1 nM |
| CC1(C)CCC(CC2CCN(c3ccc(C(=O)NS(=O)(=O)c4ccc(NCC5CCOCC5)c([N+](=O)[O-])c4)c(Oc4cnc5[nH]ccc5c4)c3)CC2)=C(c2ccc(Cl)cc2)C1 [Example 315, 4-(4-{[2-(4-chlorophenyl)-4,4-dimethylcyclohex-1-en-1-yl]methyl}piperidin-1-yl)-N-({3-nitro-4-[(tetrahydro-2H-pyran-4-ylmethyl)amino]phenyl}sulfonyl)-2-(1H-pyrrolo[2,3-b]pyridin-5-yloxy)benzamide] | 0.052 nM |
| CC1(C)CCC(CC2CCN(c3ccc(C(=O)NS(=O)(=O)c4ccc(OCC5CCOCC5)c(Cl)c4)c(Oc4cnc5[nH]ccc5c4)c3)CC2)=C(c2ccc(Cl)cc2)C1 [Example 316, 4-(4-{[2-(4-chlorophenyl)-4,4-dimethylcyclohex-1-en-1-yl]methyl}piperidin-1-yl)-N-{[3-chloro-4-(tetrahydro-2H-pyran-4-ylmethoxy)phenyl]sulfonyl}-2-(1H-pyrrolo[2,3-b]pyridin-5-yloxy)benzamide] | 0.601 nM |
| COC(=O)N1CCOC(CNc2ccc(S(=O)(=O)NC(=O)c3ccc(N4CCN(CC5=C(c6ccc(Cl)cc6)CC(C)(C)CC5)CC4)cc3Oc3cnc4[nH]ccc4c3)cc2[N+](=O)[O-])C1 (centres unmarked) [Example 317, methyl 2-{[(4-{[4-(4-{[2-(4-chlorophenyl)-4,4-dimethylcyclohex-1-en-1-yl]methyl}piperazin-1-yl)-2-(1H-pyrrolo[2,3-b]pyridin-5-yloxy)benzoyl]sulfamoyl}-2-nitrophenyl)amino]methyl}morpholine-4-carboxylate] | < 0.01 nM |
| CCN(C)C(=O)N1CCOC(CNc2ccc(S(=O)(=O)NC(=O)c3ccc(N4CCN(CC5=C(c6ccc(Cl)cc6)CC(C)(C)CC5)CC4)cc3Oc3cnc4[nH]ccc4c3)cc2[N+](=O)[O-])C1 (centres unmarked) [Example 318, 2-{[(4-{[4-(4-{[2-(4-chlorophenyl)-4,4-dimethylcyclohex-1-en-1-yl]methyl}piperazin-1-yl)-2-(1H-pyrrolo[2,3-b]pyridin-5-yloxy)benzoyl]sulfamoyl}-2-nitrophenyl)amino]methyl}-N-ethyl-N-methylmorpholine-4-carboxamide] | < 0.01 nM |
| CC1(C)CCC(CN2CCN(c3ccc(C(=O)NS(=O)(=O)c4ccc(NCC5CN(S(C)(=O)=O)CCO5)c([N+](=O)[O-])c4)c(Oc4cnc5[nH]ccc5c4)c3)CC2)=C(c2ccc(Cl)cc2)C1 (centres unmarked) [Example 319, 4-(4-{[2-(4-chlorophenyl)-4,4-dimethylcyclohex-1-en-1-yl]methyl}piperazin-1-yl)-N-{[4-({[4-(methylsulfonyl)morpholin-2-yl]methyl}amino)-3-nitrophenyl]sulfonyl}-2-(1H-pyrrolo[2,3-b]pyridin-5-yloxy)benzamide] | < 0.01 nM |
| CC1(C)CCC(CN2CCN(c3ccc(C(=O)NS(=O)(=O)c4ccc(NCCCN(C5CCC5)C5CC5)c([N+](=O)[O-])c4)c(Oc4cnc5[nH]ccc5c4)c3)CC2)=C(c2ccc(Cl)cc2)C1 [Example 320, 4-(4-{[2-(4-chlorophenyl)-4,4-dimethylcyclohex-1-en-1-yl]methyl}piperazin-1-yl)-N-{[4-({3-[cyclobutyl(cyclopropyl)amino]propyl}amino)-3-nitrophenyl]sulfonyl}-2-(1H-pyrrolo[2,3-b]pyridin-5-yloxy)benzamide] | < 0.01 nM |
| O=C(NS(=O)(=O)c1ccc(NCC2CCOCC2)c([N+](=O)[O-])c1)c1ccc(N2CCN(CC3=C(c4ccc(Cl)cc4)CCC(F)(F)C3)CC2)cc1Oc1cnc2[nH]ccc2c1 [Example 321, 4-(4-{[2-(4-chlorophenyl)-5,5-difluorocyclohex-1-en-1-yl]methyl}piperazin-1-yl)-N-({3-nitro-4-[(tetrahydro-2H-pyran-4-ylmethyl)amino]phenyl}sulfonyl)-2-(1H-pyrrolo[2,3-b]pyridin-5-yloxy)benzamide] | < 0.01 nM |
| CC1(C)CCC(CN2CCN(c3ccc(C(=O)NS(=O)(=O)c4ccc(OCC5(F)CCN(C6COC6)CC5)c(Cl)c4)c(Oc4cnc5[nH]ccc5c4)c3)CC2)=C(c2ccc(Cl)cc2)C1 [Example 322, N-[(3-chloro-4-{[4-fluoro-1-(oxetan-3-yl)piperidin-4-yl]methoxy}phenyl)sulfonyl]-4-(4-{[2-(4-chlorophenyl)-4,4-dimethylcyclohex-1-en-1-yl]methyl}piperazin-1-yl)-2-(1H-pyrrolo[2,3-b]pyridin-5-yloxy)benzamide] | < 0.01 nM |
| CC1(C)CCC(CN2CCN(c3ccc(C(=O)NS(=O)(=O)c4ccc(OCC5CCOC5)c(Cl)c4)c(Oc4cnc5[nH]ccc5c4)c3)CC2)=C(c2ccc(Cl)cc2)C1 (centres unmarked) [Example 323, 4-(4-{[2-(4-chlorophenyl)-4,4-dimethylcyclohex-1-en-1-yl]methyl}piperazin-1-yl)-N-{[3-chloro-4-(tetrahydrofuran-3-ylmethoxy)phenyl]sulfonyl}-2-(1H-pyrrolo[2,3-b]pyridin-5-yloxy)benzamide] | 0.104 nM |
| O=C(NS(=O)(=O)c1ccc(NC[C@H]2CC[C@H](O)CC2)c([N+](=O)[O-])c1)c1ccc(N2CCN(CC3=C(c4ccc(Cl)cc4)CCC(F)(F)C3)CC2)cc1Oc1cnc2[nH]ccc2c1 [Example 324, 4-(4-{[2-(4-chlorophenyl)-5,5-difluorocyclohex-1-en-1-yl]methyl}piperazin-1-yl)-N-[(4-{[(trans-4-hydroxycyclohexyl)methyl]amino}-3-nitrophenyl)sulfonyl]-2-(1H-pyrrolo[2,3-b]pyridin-5-yloxy)benzamide] | < 0.01 nM |
| O=C(NS(=O)(=O)c1ccc(OCC2(F)CCOCC2)c(Cl)c1)c1ccc(N2CCN(CC3=C(c4ccc(Cl)cc4)CCC4(CCN(C5COC5)CC4)C3)CC2)cc1Oc1cnc2[nH]ccc2c1 [Example 325, N-({3-chloro-4-[(4-fluorotetrahydro-2H-pyran-4-yl)methoxy]phenyl}sulfonyl)-4-(4-{[9-(4-chlorophenyl)-3-(oxetan-3-yl)-3-azaspiro[5.5]undec-8-en-8-yl]methyl}piperazin-1-yl)-2-(1H-pyrrolo[2,3-b]pyridin-5-yloxy)benzamide] | < 0.01 nM |
